Biological target: T1, ypMnmC (Yersinia pestis, UniProt Q8ZD36)
T1 construct: gene mnmC
Details: selenomethionyl protein; co-purified FAD, none added; MnmC1 domain site; also in 3SGL with SAM

T1 sequence (Q8ZD36 whole entry, looked up): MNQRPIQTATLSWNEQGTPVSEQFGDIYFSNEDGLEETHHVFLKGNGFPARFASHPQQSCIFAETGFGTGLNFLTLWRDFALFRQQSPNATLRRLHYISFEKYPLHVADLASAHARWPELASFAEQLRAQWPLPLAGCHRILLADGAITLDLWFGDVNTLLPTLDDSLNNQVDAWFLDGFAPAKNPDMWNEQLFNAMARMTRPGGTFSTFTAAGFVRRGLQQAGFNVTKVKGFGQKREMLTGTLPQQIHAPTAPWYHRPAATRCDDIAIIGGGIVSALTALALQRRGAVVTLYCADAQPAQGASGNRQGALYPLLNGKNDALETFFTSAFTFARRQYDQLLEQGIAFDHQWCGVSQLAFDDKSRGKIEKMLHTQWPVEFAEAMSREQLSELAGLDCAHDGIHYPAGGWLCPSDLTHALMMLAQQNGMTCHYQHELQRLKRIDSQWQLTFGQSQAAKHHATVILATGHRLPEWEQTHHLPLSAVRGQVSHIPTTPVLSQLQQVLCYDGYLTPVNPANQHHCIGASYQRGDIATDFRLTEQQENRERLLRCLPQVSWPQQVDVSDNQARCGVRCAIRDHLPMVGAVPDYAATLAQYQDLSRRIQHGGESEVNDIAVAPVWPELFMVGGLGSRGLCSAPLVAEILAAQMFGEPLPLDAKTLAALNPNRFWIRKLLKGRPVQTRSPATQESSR

Structure (SMILES): Cc1cc2nc3c(=O)[nH]c(=O)nc-3n(C[C@H](O)[C@H](O)[C@H](O)COP(=O)(O)OP(=O)(O)OC[C@H]3O[C@@H](n4cnc5c(N)ncnc54)[C@H](O)[C@@H]3O)c2cc1C [FAD]
- X-ray crystal structure, 2.30 Å: All three MnmC structures unambiguously exhibited bound FAD (Figure 4A)

Source: article PMC3648344 (BMC Structural Biology, 2013)
